Eleven compounds from publication PMC8330735 (Journal of Enzyme Inhibition and Medicinal Chemistry, 2021) can be followed below.

Data set [1] deals with stomach ulceration in rats. As to conditions: rat, in vivo, 2 days.
Experimental: The rats from the previous experiment were fasted for 12 h., followed by the administration of additional doses of the selected compounds or the two references for two consecutive days. Six hrs after the last treatment, the animals were sacrificed, and their stomachs were removed, washed with saline solution (0.9%) and examined for ulceration using a magnifying lens. The ulcer scores were estimated according to the method prescribed by Kulkarni and as detailed in our previous studies[36–38]. The following scores were individually assigned to each lesion: normal coloured stomach, 0; red colouration, 0.5; spot ulcers, 1; haemorrhagic streaks, 1.5; ulcer >3 but <5 mm, 2; and ulcers >5 mm, 3.
In data set [2] the test system is carrageenan-induced rat paw oedema. Briefly: Carrageenan-induced rat paw oedema test. It counts as in vivo. As to conditions: compounds and celecoxib 50 mg/kg, ibuprofen and indomethacin 20 mg/kg; for Mean oedema thickness 1h: 1 h after carrageenan; for Mean oedema thickness 1h / Mean oedema thickness 2h / Mean oedema thickness 3h / Mean oedema thickness 4h / Mean oedema thickness 5h / Mean oedema thickness 24h / Mean oedema thickness 0h: mean ± SEM, n = 5; for Mean oedema thickness 2h: 2 h after carrageenan; for Mean oedema thickness 3h: 3 h after carrageenan; for Mean oedema thickness 4h: 4 h after carrageenan; for Mean oedema thickness 5h: 5 h after carrageenan; for Mean oedema thickness 24h: 24 h after carrageenan; for Mean oedema thickness 0h: before carrageenan (0 h); for Average oedema inhibition%: from area under the curve of all time points. As to the method:
The rats were divided into nine groups (n = 5/group). All tested compounds were suspended in 1% Tween-80. Group 1, controls, were given the vehicle (1% Tween80, 10 ml/kg). […] The rats were given the drugs 1 h before the injection of carrageenan solution (1% in 0.9% NaCl, 0.1 ml) (Sigma Aldrich, USA) in the sub-planter tissue of the right hind paw. The paw thickness (mm) was measured using a calliper before (0 h) and after carrageenan injection at 1, 2, 3, 4, 5 and 24 h. The inhibition of oedema thickness was calculated using the following formula (control– drug/control) × 100.

The subject of data set [3] is ROS production in LPS-activated RAW 264.7 macrophages. The data set is described as follows: ROS production in LPS-activated RAW 264.7 macrophages (DCFH-DA). Format: cell-based. The note with it: Mus musculus, RAW264.7; LPS 1 µg/mL activated RAW 264.7. As to the method: HCA7 colorectal cancer cell line was obtained from Sigma. […] Louis, MO) containing 10% heat-inactivated foetal bovine serum (HI-FBS) (Gibco, USA), 100 μg/mL streptomycin (Invitrogen, USA), and […] penicillin (Invitrogen, USA)[40]. HCA7 and RAW 264.7 cells were cultured in Dulbecco's minimal essential media (DMEM, Invitrogen) containing 10% HI-FBS, sodium pyruvate (1 mM), penicillin ([…]), and streptomycin (100 mg/m)[41]^,[42]. […] The cells were cultured, incubated with the different test compounds, and activated with LPS (1 µg/mL) as detailed above. […] IC50 values were calculated from the dose–response curves.

The subject of data set [4] is NO production in LPS-activated RAW 264.7 macrophages. The data set is described as follows: NO production in LPS-activated RAW 264.7 macrophages (DAF-FM). Format: cell-based. As to conditions: Mus musculus, RAW264.7; LPS 1 µg/mL activated RAW 264.7. The protocol:
HCA7 colorectal cancer cell line was obtained from Sigma. […] Louis, MO) containing 10% heat-inactivated foetal bovine serum (HI-FBS) (Gibco, USA), 100 μg/mL streptomycin (Invitrogen, USA), and […] penicillin (Invitrogen, USA)[40]. HCA7 and RAW 264.7 cells were cultured in Dulbecco's minimal essential media (DMEM, Invitrogen) containing 10% HI-FBS, sodium pyruvate (1 mM), penicillin ([…]), and streptomycin (100 mg/m)[41]^,[42]. […] Molecular Probes, USA). Briefly, RAW 264.7 cells were cultured in black 96-well plates (200,000 cells/mL, 100 µl/well) for 24 h. […] The fluorescence intensity, which is directly proportional to NO levels, was quantified, as detailed in our previous study. IC50 values were calculated from the dose–response curves.

The next data set has as its target T1, human recombinant COX-2 (Homo sapiens, UniProt P35354).
T1 sequence (P35354 18-604): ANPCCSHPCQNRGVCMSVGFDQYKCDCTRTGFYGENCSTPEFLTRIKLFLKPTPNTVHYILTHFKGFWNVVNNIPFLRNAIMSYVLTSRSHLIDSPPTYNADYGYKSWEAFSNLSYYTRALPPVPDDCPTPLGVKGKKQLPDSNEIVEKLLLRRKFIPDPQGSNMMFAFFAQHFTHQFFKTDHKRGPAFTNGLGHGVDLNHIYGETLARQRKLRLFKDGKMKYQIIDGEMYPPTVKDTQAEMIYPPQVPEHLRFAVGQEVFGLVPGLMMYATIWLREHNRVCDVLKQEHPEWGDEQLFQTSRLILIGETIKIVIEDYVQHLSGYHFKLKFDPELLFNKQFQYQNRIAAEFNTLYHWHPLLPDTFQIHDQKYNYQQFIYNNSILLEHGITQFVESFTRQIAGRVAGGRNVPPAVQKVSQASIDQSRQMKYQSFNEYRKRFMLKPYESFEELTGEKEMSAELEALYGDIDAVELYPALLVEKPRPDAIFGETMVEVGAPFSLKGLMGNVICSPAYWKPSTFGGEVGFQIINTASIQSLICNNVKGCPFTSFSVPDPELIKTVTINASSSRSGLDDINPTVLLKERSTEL
The data set is described as follows: In vitro COX-2 inhibitory assay (colorimetric Cayman kit). The note with it: for Selectivity Index (SI): COX-1 IC50/COX-2 IC50.

A further data set addresses T2, ovine COX-1 (Ovis aries, UniProt P05979).
T2 sequence (P05979 25-600): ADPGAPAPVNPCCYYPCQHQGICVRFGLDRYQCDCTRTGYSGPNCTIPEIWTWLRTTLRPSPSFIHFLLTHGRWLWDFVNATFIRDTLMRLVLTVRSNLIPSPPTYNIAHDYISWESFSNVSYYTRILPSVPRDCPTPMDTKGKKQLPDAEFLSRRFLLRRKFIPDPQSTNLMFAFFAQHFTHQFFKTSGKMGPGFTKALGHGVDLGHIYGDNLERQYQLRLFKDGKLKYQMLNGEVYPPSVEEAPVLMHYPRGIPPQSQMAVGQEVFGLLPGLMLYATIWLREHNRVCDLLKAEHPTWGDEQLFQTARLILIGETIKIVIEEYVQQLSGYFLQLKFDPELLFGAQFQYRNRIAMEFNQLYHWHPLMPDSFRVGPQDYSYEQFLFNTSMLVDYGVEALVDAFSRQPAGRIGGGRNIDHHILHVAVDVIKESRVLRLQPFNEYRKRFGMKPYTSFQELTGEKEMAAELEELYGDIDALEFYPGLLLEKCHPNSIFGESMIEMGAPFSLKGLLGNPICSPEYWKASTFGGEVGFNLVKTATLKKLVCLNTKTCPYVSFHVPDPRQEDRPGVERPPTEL
The data set is described as follows: In vitro COX-1 inhibitory assay (colorimetric Cayman kit).

SMILES strings stand for the structures.

Experimental for human recombinant COX-2: (§1) All the newly synthesised compounds were tested for their ability to inhibit COX-1 and COX-2 enzymes using a screening assay method.
Experimental for ovine COX-1: as §1

For the compound `COc1ccc2c(c1)c(CC(=O)O)c(C)n2C(=O)c1ccc(Cl)cc1` [Indomethacin, reference compound], in data set [1], the “Average Ulcer number” value was determined as 12.4, the “Lesion Incidence (%)” value is recorded as 100% and the “Number of rats with ulcer” value is given as 5. In data set [2], the “Mean oedema thickness 1h” value is given as 2.00 ± 0.14 mm, the “Mean oedema thickness 2h” value is recorded as 2.21 ± 0.12 mm, the “Mean oedema thickness 3h” value is given as 1.82 ± 0.13 mm and the “Mean oedema thickness 4h” value is recorded as 2.02 ± 0.16 mm. Moreover, in data set [2], the “Mean oedema thickness 5h” value came to 1.87 ± 0.18 mm, the “Mean oedema thickness 24h” value is given as 0.49 ± 0.10 mm, the “Mean oedema thickness 0h” value came to 0.00 ± 0.00 mm and the Average oedema inhibition% turned out to be 33.81%. Further, half-maximal inhibition in data set [3] (IC50) required 68.9 ± 1.29 µM. Moreover, the IC50 (in general, the concentration at which inhibition is half-maximal) in data set [4] stood at 25.3 ± 1.01 µM.

On to `CC(C)Cc1ccc(C(C)C(=O)NN2C(=O)c3ccccc3N(C)C2c2ccc(F)cc2)cc1` (centres unmarked) [7e], for which the melting point (in general, the temperature, or range, at which the solid turns liquid) was 90 to 95 °C. On human recombinant COX-2, the IC50 was 40 nM and the “Selectivity Index (SI)” value is recorded as 296.25. This compound also gave a half-inhibitory concentration (IC50) at ovine COX-1 of 11.8 ± 0.15 µM.

The compound `NNC(=O)CSc1nc2ccccc2c(=O)n1NC(=O)c1ccccc1` [13a, N-(2-((2-hydrazinyl-2-oxoethyl)thio)-4-oxoquinazolin-3(4H)-yl)benzamide] came in with a melting point of 208 to 213 °C. Also, on human recombinant COX-2, the IC50 was 40 nM and the “Selectivity Index (SI)” value is given as 254.75. Moreover, half-maximal inhibition against ovine COX-1 (IC50) required 10.2 ± 0.14 µM.

Compound `O=C(CSc1nc2ccccc2c(=O)n1NC(=O)c1ccccc1)NNC(=O)c1ccccc1` [14a, N-(2-((2-(2-benzoylhydrazinyl)-2-oxoethyl)thio)-4-oxoquinazolin-3(4H)-yl)benzamide] yielded a melting point of 194 to 198 °C. On human recombinant COX-2, the IC50 stood at 30 nM and the “Selectivity Index (SI)” value is 362.00. The same compound returned an IC50 against ovine COX-1 of 10.9 ± 0.2 µM.

In the case of `CC(C)Cc1ccc(C(C)C(=O)O)cc1` (centres unmarked) [Ibuprofen, reference compound], in data set [1], the “Average Ulcer number” value was determined as 3.8, the “Lesion Incidence (%)” value came to 100% and the “Number of rats with ulcer” value came out at 5. In data set [2], the “Mean oedema thickness 1h” value stood at 1.76 ± 0.07 mm, the “Mean oedema thickness 2h” value is recorded as 2.00 ± 0.15 mm, the “Mean oedema thickness 3h” value turned out to be 1.74 ± 0.08 mm and the “Mean oedema thickness 4h” value was 1.23 ± 0.16 mm. Further, in data set [2], the “Mean oedema thickness 5h” value stood at 1.36 ± 0.18 mm, the “Mean oedema thickness 24h” value came out at 0.48 ± 0.15 mm, the “Mean oedema thickness 0h” value was 0.00 ± 0.00 mm and the Average oedema inhibition% was found to be 47.18%. In addition, the 50% inhibitory concentration (IC50) in data set [3] came to 36.4 ± 1.45 µM. This compound yielded an IC50 in data set [4] of 18.8 ± 1.19 µM.

As to `CC(C)Cc1ccc(C(C)C(=O)NN2C(=O)c3ccccc3N(C)C2c2ccc(Cl)cc2)cc1` (centres unmarked) [7b, N-(2-(4-chlorophenyl)-1-methyl-4-oxo-1,4-dihydroquinazolin-3(2H)-yl)-2–(4-isobutylphenyl) propenamide], the melting point lay in the range of 120 to 125 °C. For the same compound, at human recombinant COX-2, the 50% inhibitory concentration (IC50) stood at 40 nM and the “Selectivity Index (SI)” value is listed as 333.75. At ovine COX-1, this compound came in with an IC50 of 13.35 ± 0.1 µM.

`COc1ccc(C2N(NC(=O)C(C)c3ccc(CC(C)C)cc3)C(=O)c3ccccc3N2C)cc1` (centres unmarked) [7d, 2-(4-Isobutylphenyl)-N-(2-(4-methoxyphenyl)-1-methyl-4-oxo-1,4-dihydroquinazolin-3(2H)-yl) propenamide]: the melting point is 92 to 95 °C. Moreover, at human recombinant COX-2, the half-inhibitory concentration (IC50) came out at 40 nM and the “Selectivity Index (SI)” value is listed as 359.25. Besides, the IC50 against ovine COX-1 is 14.4 ± 0.16 µM.

As to `CC(C)Cc1ccc(C(C)C(=O)NN2C(=O)c3ccccc3N(C)C2c2ccccc2)cc1` (centres unmarked) [7a, 2-(4-Isobutylphenyl)-N-(1-methyl-4-oxo-2-phenyl-1,4-dihydroquinazolin-3(2H)-yl) propenamide], the melting point was 85 to 89 °C. In addition, at human recombinant COX-2, the IC50 was found to be 50 ± 130 nM and the “Selectivity Index (SI)” value is on record as 255.02. Half-maximal inhibition at ovine COX-1 (IC50) required 12.76 ± 0.1 µM.

As for `COc1ccc(C2N(NC(=O)Cc3c[nH]c4ccccc34)C(=O)c3ccccc3N2C)cc1` (centres unmarked) [4c, 2-(1 h-indol-3-yl)-N-(2-(4-methoxyphenyl)-1-methyl-4-oxo-1,4-dihydroquinazolin-3(2H)-yl)acetamide], the melting point was in the range of 83 to 85 °C. Besides, at human recombinant COX-2, the IC50 stood at 30 nM and the “Selectivity Index (SI)” value was 373.67. This compound returned an IC50 against ovine COX-1 of 11.2 ± 0.13 µM.

`O=C(CSc1nc2ccccc2c(=O)n1NC(=O)c1ccccc1)NNC(=O)c1ccc(Cl)cc1` [14b, N-(2-((2-(2-(4-chlorobenzoyl)hydrazinyl)-2-oxoethyl)thio)-4 oxoquinazolin-3(4H)-yl)benzamide] returned a melting point of 215 to 220 °C. In addition, on human recombinant COX-2, the IC50 was found to be 40 nM and the “Selectivity Index (SI)” value amounted to 324.5. This compound also showed an IC50 against ovine COX-1 of 12.98 ± 0.12 µM.

The compound `O=C(CSc1nc2ccccc2c(=O)n1NC(=O)Cc1ccccc1)NNC(=O)c1ccc(Cl)cc1` [14d, N-(2-((2-(2-(4-chlorobenzoyl)hydrazinyl)-2-oxoethyl)thio)-4-oxoquinazolin-3(4H)-yl)-2-phenylacetamide] displayed a melting point of 221 to 226 °C. For the same compound, on human recombinant COX-2, the IC50 was found to be 40 nM and the “Selectivity Index (SI)” value was determined as 314.00. The same compound gave an IC50 against ovine COX-1 of 12.56 ± 0.11 µM.
